{"source": "patent US11291651B2", "about": "“Glycopyrrolate salts” (Journey Medical Corporation, priority 2013, dated 2022)", "key": {"hyperhidrosis": {"test_system": "hyperhidrosis", "details": "topically applied; compared with aluminum chloride; cited from earlier work"}, "[1]": {"biological_target": "M3 muscarinic acetylcholine receptor (Homo sapiens, UniProt P20309)", "sequence (P20309 whole entry)": "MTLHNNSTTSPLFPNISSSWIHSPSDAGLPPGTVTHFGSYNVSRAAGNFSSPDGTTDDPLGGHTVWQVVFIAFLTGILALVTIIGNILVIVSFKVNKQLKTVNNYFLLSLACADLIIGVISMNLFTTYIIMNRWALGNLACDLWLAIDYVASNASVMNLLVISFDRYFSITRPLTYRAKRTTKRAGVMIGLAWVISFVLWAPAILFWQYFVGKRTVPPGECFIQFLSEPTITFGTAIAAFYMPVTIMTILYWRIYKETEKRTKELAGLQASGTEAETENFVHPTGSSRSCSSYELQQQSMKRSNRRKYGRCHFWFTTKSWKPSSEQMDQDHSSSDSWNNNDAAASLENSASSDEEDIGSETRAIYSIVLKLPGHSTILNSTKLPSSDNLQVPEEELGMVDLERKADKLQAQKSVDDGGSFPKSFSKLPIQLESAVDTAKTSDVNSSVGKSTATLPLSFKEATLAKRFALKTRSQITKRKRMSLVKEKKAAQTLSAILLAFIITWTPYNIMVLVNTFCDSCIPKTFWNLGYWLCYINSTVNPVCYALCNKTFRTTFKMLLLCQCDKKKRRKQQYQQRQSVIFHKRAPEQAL", "experiment": "binding affinity for the M3 muscarinic acetylcholine receptor in vitro", "details": "glycopyrronium delivered as bromide or tosylate salt", "excerpt": "(§1) Such dose dependency is consistent with glycopyrrolate's anti-muscarinic activity. Accordingly, glycopyrrolate tosylate may also be used to treat hyperhidrosis in patients such as by administering a topical containing glycopyrrolate tosylate. By topical, what is meant is a material or formulation comprising or containing glycopyrrolate tosylate which may be used to deliver glycopyrrolate tosylate, including a pharmaceutically effective amount of glycopyrrolate tosylate, to a patient. In many embodiments, the glycopyrrolate tosylate is threo glycopyrrolate tosylate. Examples of a topical include, but are not limited to, solutions, ointments, gels, lotions, powders, sprays, creams, cream bases, patches, pastes, washes, dressings, masks, gauzes, bandages, swabs, brushes, or pads. The application of the topical may be controlled by controlling the dose amount or the rate of release. The dose may be controlled by dissolving or dispensing threo glycopyrrolate tosylate, for example, in the appropriate medium. These and other dose controlling formulations may be used to deliver controlled doses such as specific unit doses, metered doses, or multiple doses from the topical."}, "[2]": {"test_system": "patients suffering from hyperhidrosis", "experiment": "study in patients suffering from hyperhidrosis treated with 2% and 4% glycopyrrolate formulations", "assay_type": "in vivo", "excerpt": "as §1, with “By” for “Such dose dependency is consistent with glycopyrrolate's anti-muscarinic activity. Accordingly, glycopyrrolate tosylate may also be used to treat hyperhidrosis in patients such as by administering a topical containing glycopyrrolate tosylate. By”"}, "[3]": {"details": "exposed to standard atmospheric conditions", "excerpt": "In addition, the extremely low glass transition renders the amorphous form of glycopyrrolate challenging to formulate successfully."}, "[4]": {"experiment": "glass transition temperature by modulated DSC", "assay_type": "physicochemical", "details": "amorphous solid", "protocol": "DSC was performed using a TA Instruments 2920 differential scanning calorimeter. Temperature calibration was performed using NIST-traceable indium metal. The sample was placed into an aluminum DSC pan, covered with a lid, and the weight was accurately recorded. A weighed aluminum pan configured as the sample pan was placed on the reference side of the cell. Modulated DSC data (see, e.g., FIG. 23) were obtained on a TA Instruments Q2000 differential scanning calorimeter equipped with a refrigerated cooling system (RCS). Temperature calibration was performed using NIST-traceable indium metal. The sample was placed into an aluminum DSC pan, and the weight was accurately recorded. The pan was covered with a lid perforated with a laser pinhole, and the lid was hermetically sealed. A weighed, crimped aluminum pan was placed on the reference side of the cell. Data were obtained using a modulation amplitude of ±1° C. and a 60 second period with an underlying heating rate of 2° C./minute from −50 to 220° C. The reported glass transition temperatures are obtained from the inflection point of the step change in the reversing heat flow versus temperature curve."}}, "data": [{"compound": "C[N+]1(C)CCC(OC(=O)C(O)(c2ccccc2)C2CCCC2)C1", "note": "(stereo not drawn) [glycopyrrolate bromide, glycopyrronium bromide]", "values": [{"measurement": "effectiveness", "setting": "hyperhidrosis", "value": "increased effectiveness"}, {"measurement": "binding affinity for the M3 muscarinic acetylcholine receptor", "setting": "[1]", "value": "equivalent binding affinity"}, {"measurement": "efficacy responses", "setting": "[2]; 2% and 4% glycopyrrolate formulations", "value": "dose dependent trend"}, {"measurement": "axillary sweating", "setting": "[2]; formulations containing 2% and 4% glycopyrrolate based on a glycopyrrolate bromide preparation", "value": "reduced"}]}, {"compound": "C[N+]1(C)CCC(OC(=O)C(O)(c2ccccc2)C2CCCC2)C1.Cc1ccc(S(=O)(=O)[O-])cc1.O", "note": "(stereo not drawn) [amorphous glycopyrrolate tosylate]", "values": [{"measurement": "hygroscopicity", "setting": "[3]", "value": "extremely hygroscopic which deliquesced readily"}, {"measurement": "onset of the glass transition temperature", "setting": "[4]", "value": 11.6, "unit": "°C"}]}]}
